Source: ChEMBL document CHEMBL4414648, “Novel Benzohydroxamate-Based Potent and Selective Histone Deacetylase 6 (HDAC6) Inhibitors Bearing a Pentaheterocyclic Scaffold: Design, Synthesis, and Biological Evaluation” (J Med Chem, 2019)

Legend:
[1] = Stability in rat plasma assessed as parent compound remaining at 100 uM after 4 hrs by LC-MS/MS analysis; type: ADME, cell-free; conditions: read-out: Stability
[2] = Stability in human plasma assessed as parent compound remaining at 100 uM after 4 hrs by LC-MS/MS analysis; type: ADME, cell-free; conditions: read-out: Stability
697 = assay: Cytotoxicity against human 697 cells after 48 hrs by CellTiter 96 aqueous one solution assay; type: cell-based; conditions: Homo sapiens, 697, 48 h
[3] = Selectivity ratio of IC50 for C-terminal His-tagged human HDAC9 (604 to 1066 residues) expressed in baculovirus infected sf9 insect cells to IC50 for human N-terminal GST-tagged HDAC6 expressed in baculovirus infected sf9 insect cells
[4] = Selectivity ratio of IC50 for C-terminal His-tagged human HDAC8 expressed in baculovirus infected sf9 insect cells to IC50 for human N-terminal GST-tagged HDAC6 expressed in baculovirus infected sf9 insect cells
[5] = Selectivity ratio of IC50 for N-terminal GST-tagged human HDAC7 (518 to end residues) expressed in baculovirus infected sf9 insect cells to IC50 for human N-terminal GST-tagged HDAC6 expressed in baculovirus infected sf9 insect cells
[6] = Selectivity ratio of IC50 for N-terminal His-tagged human HDAC11 expressed in baculovirus expression system to IC50 for human N-terminal GST-tagged HDAC6 expressed in baculovirus infected sf9 insect cells
[7] = Selectivity ratio of IC50 for N-terminal Flag-tagged human HDAC10 (2 to 631 residues) expressed in baculovirus infected sf9 insect cells to IC50 for human N-terminal GST-tagged HDAC6 expressed in baculovirus infected sf9 insect cells
[8] = Stability in rat liver S9 fraction assessed as parent compound remaining at 5 uM after 90 mins in presence of NADPH by LC-MS/MS analysis; type: ADME, subcellular; conditions: read-out: Stability
[9] = Selectivity ratio of IC50 for human HDAC4 expressed in baculovirus infected sf9 insect cells to IC50 for human N-terminal GST-tagged HDAC6 expressed in baculovirus infected sf9 insect cells
PBMC = assay: Cytotoxicity against human PBMC cells after 72 hrs by CellTiter 96 aqueous one solution assay; type: cell-based
[10] = Stability in human liver S9 fraction assessed as parent compound remaining at 5 uM after 90 mins in presence of NADPH by LC-MS/MS analysis; type: ADME, subcellular; conditions: read-out: Stability
[11] = Selectivity ratio of IC50 for C-terminal GST-tagged human HDAC5 to IC50 for human N-terminal GST-tagged HDAC6 expressed in baculovirus infected sf9 insect cells
Histone deacetylase = assay: Inhibition of HDAC in human 697 cells assessed as increase in H3 acetylation at 1000 nM incubated for 16 hrs by ELISA; type: cell-based; conditions: human, 697, 16 h, 1 µM
[12] = molecular target: T1, Protein deacetylase HDAC6 (Homo sapiens, UniProt Q9UBN7); assay: biochemical
T1 sequence (Q9UBN7 whole entry): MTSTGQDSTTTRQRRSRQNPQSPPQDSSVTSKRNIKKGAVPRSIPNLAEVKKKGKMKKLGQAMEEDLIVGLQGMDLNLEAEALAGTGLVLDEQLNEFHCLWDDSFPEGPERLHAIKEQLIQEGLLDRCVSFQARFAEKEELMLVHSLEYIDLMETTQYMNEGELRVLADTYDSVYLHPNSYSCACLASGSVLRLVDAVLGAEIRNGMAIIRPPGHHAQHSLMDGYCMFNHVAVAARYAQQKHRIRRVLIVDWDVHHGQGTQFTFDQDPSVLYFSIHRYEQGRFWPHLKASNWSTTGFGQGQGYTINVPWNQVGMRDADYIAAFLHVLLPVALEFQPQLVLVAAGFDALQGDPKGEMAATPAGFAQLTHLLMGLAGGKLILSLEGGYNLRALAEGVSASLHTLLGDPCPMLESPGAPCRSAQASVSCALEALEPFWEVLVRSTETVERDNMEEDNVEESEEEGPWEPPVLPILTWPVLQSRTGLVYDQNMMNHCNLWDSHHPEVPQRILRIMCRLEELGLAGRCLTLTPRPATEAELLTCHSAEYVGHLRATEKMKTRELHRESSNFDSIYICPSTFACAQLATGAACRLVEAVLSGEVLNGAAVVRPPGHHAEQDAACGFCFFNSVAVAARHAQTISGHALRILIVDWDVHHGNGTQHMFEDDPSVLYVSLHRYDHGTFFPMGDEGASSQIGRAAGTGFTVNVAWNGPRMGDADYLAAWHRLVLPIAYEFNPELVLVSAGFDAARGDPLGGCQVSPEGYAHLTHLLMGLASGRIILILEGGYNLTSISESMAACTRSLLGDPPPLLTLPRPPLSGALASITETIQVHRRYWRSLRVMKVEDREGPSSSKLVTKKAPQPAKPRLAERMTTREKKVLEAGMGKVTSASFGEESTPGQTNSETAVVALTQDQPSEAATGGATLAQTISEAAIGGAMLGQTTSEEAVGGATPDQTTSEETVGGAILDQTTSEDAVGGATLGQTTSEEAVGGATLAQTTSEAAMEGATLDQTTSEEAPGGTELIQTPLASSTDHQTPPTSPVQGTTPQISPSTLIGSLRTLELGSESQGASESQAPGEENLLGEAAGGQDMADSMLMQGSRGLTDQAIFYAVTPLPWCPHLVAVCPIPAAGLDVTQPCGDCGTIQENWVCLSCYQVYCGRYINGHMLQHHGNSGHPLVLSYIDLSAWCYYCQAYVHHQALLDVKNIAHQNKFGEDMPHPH

Row | Compound | remaining at 4 h, 100 µM [1] [%] | remaining at 4 h, 100 µM [2] [%] | remaining at […], 5 µM [8] [%] | remaining at […], 5 µM [10] [%] | IC50 [12] [nM] | IC50 697 [nM] | IC50 (PBMC) [nM] | also measured
1 | O=C(CCCCCCNC(=O)c1cnc(N(c2ccccc2)c2ccccc2)nc1)NO [RICOLINOSTAT] | 91 | 100 |  |  |  | 201 |  | 
2 | O=C(NO)c1cnc(NC2(c3ccccc3)CC2)nc1 | 12 | 100 |  |  |  | 3390 |  | 
3 | O=C(NO)c1ccc(Nc2nnc(-c3ccccc3)s2)cc1 |  |  |  |  | 66 |  |  | 
4 | O=C(NO)c1ccc(Sc2ncc(-c3ccccc3)s2)cc1 |  |  |  |  | 62 |  |  | 
5 | CCCCN(Cc1ccc(C(=O)NO)cc1)C(=O)Nc1ccccc1 [NEXTURASTAT A] | 40 | 100 |  |  |  | 401 |  | 
6 | O=C(NO)c1ccc(Cn2nnnc2-c2ccccc2)cc1 |  |  |  |  | 9 |  |  | 
7 | CN1CCc2c(c3ccccc3n2Cc2ccc(C(=O)NO)cc2)C1 [TUBASTATIN A] | 38 | 98 |  |  |  | 2010 |  | 
8 | O=C(NO)c1ccc(Cc2nnc(-c3ccccc3)s2)cc1 |  |  |  |  | 16 |  |  | 
9 | O=C(NO)c1ccc(Sc2nnc(-c3ccccc3)s2)cc1 |  |  |  |  | 6 |  |  | 
10 | O=C(NO)c1ccc(Cc2nnc(-c3ccccc3)[nH]2)cc1 |  |  |  |  | 5 |  |  | 
11 | O=C(NO)c1ccc(-c2nnc(-c3ccccc3)o2)cc1 |  |  |  |  | 660 |  |  | 
12 | O=C(NO)c1ccc(Cn2cccn2)cc1 |  |  |  |  | 102 |  |  | 
13 | Cc1csc(Nc2ccc(C(=O)NO)cc2)n1 |  |  |  |  | 137 |  |  | 
14 | O=C(NO)c1ccc(Cc2noc(-c3ccccc3)n2)cc1 |  |  |  |  | 6 |  |  | 
15 | COc1ccc(CC(=O)N[C@@H](Cc2cscn2)C(=O)Nc2ccc(C(=O)NO)cc2)cc1OC | 18 | 100 |  |  | 5 | > 10000 |  | 
16 | O=C(NO)c1ccc(CC(=O)N(CCO)c2ccccc2)cc1 | 45 | 79 |  |  |  | 8330 |  | 
17 | CCN(CC)Cc1ccc2cc(COC(=O)Nc3ccc(C(=O)NO)cc3)ccc2c1 [GIVINOSTAT] | 72 | 97 | 6 | 83 |  | 100 | 313 | 

The next lines start with results.

Row | remaining at 4 h, 100 µM [1] [%] | remaining at 4 h, 100 µM [2] [%] | remaining at […], 5 µM [8] [%] | remaining at […], 5 µM [10] [%] | IC50 [12] [nM] | Compound | IC50 697 [nM] | IC50 (PBMC) [nM] | also measured
18 | 87 | 96 | 97 | 86 |  | O=C(NO)c1cc(F)c(Cn2nnc(-c3ccccn3)n2)c(F)c1 | > 1000 | > 1000 | Ratio IC50 [3]: 102; Ratio IC50 [4]: 138; Ratio IC50 [5]: 119; Ratio IC50 [6]: 696; Ratio IC50 [7]: 1463; Ratio IC50 [9]: 139; Ratio IC50 [11]: 141
19 | 98 | 100 | 58 | 79 | 13 | Cn1c(Sc2c(F)cc(C(=O)NO)cc2F)nnc1-c1cccnn1 | > 1000 | > 1000 | Ratio IC50 [3]: 16; Ratio IC50 [4]: 34; Ratio IC50 [5]: 15; Ratio IC50 [6]: 278; Ratio IC50 [7]: 372; inhibition (INH) (Histone deacetylase): Active; Ratio IC50 [9]: 33; Ratio IC50 [11]: 34
20 | 78 | 93 | 96 | 89 |  | O=C(NO)c1cc(F)c(Cn2nnc(-c3ncccn3)n2)c(F)c1 | > 1000 | > 1000 | 
21 | 100 | 100 | 68 | 94 | 3 | O=C(NO)c1cc(F)c(Cn2nnc(-c3ccco3)n2)c(F)c1 | > 1000 | > 1000 | Ratio IC50 [3]: 192; Ratio IC50 [4]: 210; Ratio IC50 [5]: 330; Ratio IC50 [6]: 259; Ratio IC50 [7]: 876; inhibition (INH) (Histone deacetylase): Active; Ratio IC50 [9]: 219; Ratio IC50 [11]: 194
22 |  |  |  |  | 6 | O=C(NO)c1ccc(Sc2nnc(-c3ccccc3)o2)cc1 |  |  | 
23 | 100 | 97 | 70 | 80 |  | Cn1c(Sc2c(F)cc(C(=O)NO)cc2F)nnc1-c1ncccc1F | > 1000 | > 1000 | Ratio IC50 [3]: 24; Ratio IC50 [4]: 64; Ratio IC50 [5]: 38; Ratio IC50 [6]: 250; Ratio IC50 [7]: 432; inhibition (INH) (Histone deacetylase): Active; Ratio IC50 [9]: 53; Ratio IC50 [11]: 54
24 | 87 | 99 | 71 | 83 |  | Cn1c(Sc2c(F)cc(C(=O)NO)cc2F)nnc1-c1cccs1 | > 1000 | > 1000 | Ratio IC50 [3]: 55; Ratio IC50 [4]: 21; Ratio IC50 [5]: 61; Ratio IC50 [6]: 254; Ratio IC50 [7]: 763; inhibition (INH) (Histone deacetylase): Active; Ratio IC50 [9]: 155; Ratio IC50 [11]: 171
25 | 99 | 76 | 99 | 83 | 7 | O=C(NO)c1ccc(Cn2nnc(-c3ncccn3)n2)cc1 | > 1000 | > 1000 | Ratio IC50 [3]: 246; Ratio IC50 [4]: 46; Ratio IC50 [5]: 146; Ratio IC50 [6]: 103; Ratio IC50 [7]: 111; Ratio IC50 [9]: 665; Ratio IC50 [11]: 721
26 |  |  |  |  | 17 | Cn1c(Cc2ccc(C(=O)NO)cc2)nnc1-c1ccccc1 |  |  | 
27 |  |  |  |  | 2240 | Cc1cc(-c2nnc(Sc3ccc(C(=O)NO)c(F)c3)n2C)nn1C |  |  | 
28 | 75 | 90 | 74 | 69 |  | Cn1c(Sc2c(F)cc(C(=O)NO)cc2F)nnc1-c1ccc(CN2CCCCC2)cc1 | > 1000 | > 1000 | Ratio IC50 [3]: 36; Ratio IC50 [4]: 32; Ratio IC50 [5]: 83; Ratio IC50 [6]: 342; Ratio IC50 [7]: 814; Ratio IC50 [9]: 126; Ratio IC50 [11]: 101
29 |  |  |  |  | 2530 | Cc1cc(-c2nnc(Sc3c(F)c(F)c(C(=O)NO)c(F)c3F)n2C)nn1C |  |  | 
30 | 84 | 93 | 32 | 68 |  | O=C(NO)c1cc(F)c(Cc2nnc(-c3ccncc3)s2)c(F)c1 | > 1000 | > 1000 | Ratio IC50 [3]: 44; Ratio IC50 [4]: 139; Ratio IC50 [5]: 77; Ratio IC50 [6]: 291; Ratio IC50 [7]: 507; inhibition (INH) (Histone deacetylase): Active; Ratio IC50 [9]: 101; Ratio IC50 [11]: 67
